Calls of active or inactive are those of the source. The rule behind the calls is not given here.
Key:
[1] = tested on: Schoenoplectiella juncoides; experiment: Herbicidal activity against Schoenoplectiella juncoides var. Hotarui Ohwi assessed as phytotoxic activity ratings (0- no effect to 5-complete killing rating scale) at 100 g/a measured after 3 weeks post compound treatment under green house conditions; format: functional
Cyperus serotinus [2] = experiment: Herbicidal activity against Cyperus serotinus assessed as phytotoxic activity ratings (0- no effect to 5-complete killing rating scale) at 3.1 to 100 g/a measured after 3 weeks post compound treatment under green house conditions; format: functional
Oryza sativa [3] = experiment: Phytotoxicity against directly seeded Oryza sativa (rice) seedlings assessed as phytotoxic activity ratings (0- no effect to 5-complete killing rating scale) at 100 g/a measured after 3 weeks post compound treatment under green house conditions; format: organism-based; details: in vivo, 504 h
Echinochloa oryzicola [4] = experiment: Herbicidal activity against Echinochloa oryzicola assessed as phytotoxic activity ratings (0- no effect to 5-complete killing rating scale) at 25 g/a measured after 3 weeks post compound treatment under green house conditions; format: functional
Oryza sativa [5] = experiment: Phytotoxicity against transplanted Oryza sativa (rice) seedlings assessed as phytotoxic activity ratings (0- no effect to 5-complete killing rating scale) at 100 g/a measured after 3 weeks post compound treatment under green house conditions; format: organism-based; details: in vivo, 504 h
Cyperus difformis [6] = experiment: Herbicidal activity against Cyperus difformis assessed as phytotoxic activity ratings (0- no effect to 5-complete killing rating scale) at 100 g/a measured after 3 weeks post compound treatment under green house conditions; format: functional
Cyperus serotinus [7] = experiment: Herbicidal activity against Cyperus serotinus assessed as phytotoxic activity ratings (0- no effect to 5-complete killing rating scale) at 3.1 g/a measured after 3 weeks post compound treatment under green house conditions; format: functional
Echinochloa oryzicola [8] = experiment: Herbicidal activity against Echinochloa oryzicola assessed as phytotoxic activity ratings (0- no effect to 5-complete killing rating scale) at 6.2 g/a measured after 3 weeks post compound treatment under green house conditions; format: functional
[9] = tested on: Schoenoplectiella juncoides; experiment: Herbicidal activity against Schoenoplectiella juncoides var. Hotarui Ohwi assessed as phytotoxic activity ratings (0- no effect to 5-complete killing rating scale) at 6.2 g/a measured after 3 weeks post compound treatment under green house conditions; format: functional
Oryza sativa [10] = experiment: Phytotoxicity against directly seeded Oryza sativa (rice) seedlings assessed as phytotoxic activity ratings (0- no effect to 5-complete killing rating scale) at 6.2 g/a measured after 3 weeks post compound treatment under green house conditions; format: organism-based; details: in vivo, 504 h
Cyperus difformis [11] = experiment: Herbicidal activity against Cyperus difformis assessed as phytotoxic activity ratings (0- no effect to 5-complete killing rating scale) at 6.2 g/a measured after 3 weeks post compound treatment under green house conditions; format: functional
Cyperus serotinus [12] = experiment: Herbicidal activity against Cyperus serotinus assessed as phytotoxic activity ratings (0- no effect to 5-complete killing rating scale) at 100 g/a measured after 3 weeks post compound treatment under green house conditions; format: functional
Echinochloa oryzicola [13] = experiment: Herbicidal activity against Echinochloa oryzicola assessed as phytotoxic activity ratings (0- no effect to 5-complete killing rating scale) at 100 g/a measured after 3 weeks post compound treatment under green house conditions; format: functional
Cyperus difformis [14] = experiment: Herbicidal activity against Cyperus difformis assessed as phytotoxic activity ratings (0- no effect to 5-complete killing rating scale) at 12.2 g/a measured after 3 weeks post compound treatment under green house conditions; format: functional
[15] = tested on: Schoenoplectiella juncoides; experiment: Herbicidal activity against Schoenoplectiella juncoides var. Hotarui Ohwi assessed as phytotoxic activity ratings (0- no effect to 5-complete killing rating scale) at 50 g/a measured after 3 weeks post compound treatment under green house conditions; format: functional
Cyperus difformis [16] = experiment: Herbicidal activity against Cyperus difformis assessed as phytotoxic activity ratings (0- no effect to 5-complete killing rating scale) at 25 g/a measured after 3 weeks post compound treatment under green house conditions; format: functional
Echinochloa oryzicola [17] = experiment: Herbicidal activity against Echinochloa oryzicola assessed as phytotoxic activity ratings (0- no effect to 5-complete killing rating scale) at 50 g/a measured after 3 weeks post compound treatment under green house conditions; format: functional
[18] = tested on: Schoenoplectiella juncoides; experiment: Herbicidal activity against Schoenoplectiella juncoides var. Hotarui Ohwi assessed as phytotoxic activity ratings (0- no effect to 5-complete killing rating scale) at 3.1 g/a measured after 3 weeks post compound treatment under green house conditions; format: functional
[19] = tested on: Schoenoplectiella juncoides; experiment: Herbicidal activity against Schoenoplectiella juncoides var. Hotarui Ohwi assessed as phytotoxic activity ratings (0- no effect to 5-complete killing rating scale) at 12.2 g/a measured after 3 weeks post compound treatment under green house conditions; format: functional
Cyperus difformis [20] = experiment: Herbicidal activity against Cyperus difformis assessed as phytotoxic activity ratings (0- no effect to 5-complete killing rating scale) at 50 g/a measured after 3 weeks post compound treatment under green house conditions; format: functional
Cyperus serotinus [21] = experiment: Herbicidal activity against Cyperus serotinus assessed as phytotoxic activity ratings (0- no effect to 5-complete killing rating scale) at 50 g/a measured after 3 weeks post compound treatment under green house conditions; format: functional
Cyperus serotinus [22] = experiment: Herbicidal activity against Cyperus serotinus assessed as phytotoxic activity ratings (0- no effect to 5-complete killing rating scale) at 12.2 g/a measured after 3 weeks post compound treatment under green house conditions; format: functional
Oryza sativa [23] = experiment: Phytotoxicity against directly seeded Oryza sativa (rice) seedlings assessed as phytotoxic activity ratings (0- no effect to 5-complete killing rating scale) at 12.2 g/a measured after 3 weeks post compound treatment under green house conditions; format: organism-based; details: in vivo, 504 h

| Structure (SMILES) | Activity [1] [%] | Activity (Oryza sativa [3]) [%] | Activity (Oryza sativa [5]) [%] | Activity (Cyperus difformis [6]) [%] | Activity (Cyperus serotinus [12]) [%] | Activity (Echinochloa oryzicola [13]) [%] | further results |
| --- | --- | --- | --- | --- | --- | --- | --- |
| C[C@H](NC(=O)Nc1cc(F)ccc1F)c1ccccc1 | 0 | 10 | 0 | 0 | – | – | Activity (Cyperus serotinus [2]): inactive; Activity (Echinochloa oryzicola [4]): 80% |
| C[C@@H](NC(=O)Nc1ccccc1C(C)(C)C)c1ccccc1 | – | – | 0 | – | – | – | Activity (Cyperus serotinus [7]): 80%; Activity (Echinochloa oryzicola [8]): 80%; Activity [9]: 80%; Activity (Oryza sativa [10]): 80%; Activity (Cyperus difformis [11]): 80% |
| CCCc1ccc(NC(=O)N[C@H](C)c2ccccc2)cc1 | 40 | 10 | 0 | 40 | 0 | – | Activity (Echinochloa oryzicola [8]): 80% |
| CCc1cccc(NC(=O)N[C@H](C)c2ccccc2)c1 | 40 | 0 | 0 | – | 40 | 40 | Activity (Cyperus difformis [14]): 80% |
| Cc1ccc(NC(=O)N[C@H](C)c2ccccc2)cc1 | – | 0 | 0 | – | 40 | 10 | Activity [15]: 80%; Activity (Cyperus difformis [16]): 80% |
| Cc1ccc(NC(=O)NC(C)(C)c2ccccc2)cc1 [DAIMURON] | – | 10 | 0 | – | – | – | Activity (Echinochloa oryzicola [17]): 80%; Activity (Cyperus difformis [11]): 80%; Activity [18]: 80% |
| C[C@@H](NC(=O)Nc1ccccc1C(F)(F)F)c1ccccc1 | – | 10 | 0 | – | – | 40 | Activity (Cyperus serotinus [7]): 80%; Activity [19]: 80%; Activity (Cyperus difformis [14]): 80% |
| CCc1ccccc1NC(=O)N[C@H](C)c1ccccc1 | 10 | 0 | 0 | – | – | 0 | Activity (Cyperus serotinus [7]): 80%; Activity (Cyperus difformis [16]): 80% |
| CC(C)c1cccc(NC(=O)N[C@@H](C)c2ccccc2)c1 | – | 0 | 0 | – | 10 | 0 | Activity (Cyperus serotinus [2]): 80%; Activity (Cyperus difformis [20]): 80% |
| CC(C)c1ccc(NC(=O)N[C@@H](C)c2ccccc2)cc1 | 0 | 0 | 0 | 0 | 0 | 0 | Activity (Cyperus serotinus [2]): inactive |
| COc1cccc(NC(=O)N[C@H](C)c2ccccc2)c1 | – | 10 | 0 | 40 | 10 | 10 | Activity (Cyperus serotinus [2]): 80%; Activity [15]: 80% |
| Cc1ccccc1NC(=O)N[C@H](C)c1ccccc1 | – | 0 | 0 | 10 | – | 0 | Activity (Cyperus serotinus [21]): 80% |
| C[C@@H](NC(=O)Nc1cccc(C(F)(F)F)c1)c1ccccc1 | – | 10 | 0 | 40 | 0 | 10 | Activity [15]: 80% |
| C[C@H](NC(=O)Nc1ccccc1F)c1ccccc1 | 0 | 40 | 0 | 10 | 0 | – | Activity (Echinochloa oryzicola [8]): 80% |
| C[C@H](NC(=O)Nc1cccc(C(F)(F)F)c1)c1ccccc1 | 0 | 0 | 0 | 10 | 0 | 10 | – |
| CCc1cccc(NC(=O)N[C@@H](C)c2ccccc2)c1 | 40 | 0 | 0 | 40 | 0 | 0 | – |
| C[C@H](NC(=O)Nc1cccc(F)c1F)c1ccccc1 | 0 | 10 | 0 | 0 | – | – | Activity (Cyperus serotinus [2]): inactive; Activity (Echinochloa oryzicola [4]): 80% |
| C[C@H](NC(=O)Nc1ccccc1C(F)(F)F)c1ccccc1 | 0 | 0 | 0 | 0 | 0 | 10 | – |
| CC(C)c1cccc(NC(=O)N[C@H](C)c2ccccc2)c1 | 40 | 0 | 0 | – | – | 0 | Activity (Cyperus difformis [16]): 80%; Activity (Cyperus serotinus [22]): 80% |
| CC(C)c1ccccc1NC(=O)N[C@@H](C)c1ccccc1 | 0 | 0 | 0 | 0 | 0 | 0 | – |
| CC(C)c1ccccc1NC(=O)N[C@H](C)c1ccccc1 | – | – | 0 | – | – | – | Activity (Cyperus serotinus [7]): 80%; Activity (Echinochloa oryzicola [8]): 80%; Activity (Oryza sativa [23]): 80%; Activity [9]: 80%; Activity (Cyperus difformis [11]): 80% |
| C[C@H](NC(=O)Nc1ccccc1)c1ccccc1 | 0 | 10 | 0 | 0 | 0 | – | Activity (Echinochloa oryzicola [4]): 80% |

From ChEMBL document CHEMBL3046383, “Enantioselective Herbicidal Activity of Chiral α-Methylbenzylphenylureas against Cyperaceae and Echinochloa Paddy Weeds” (Biosci Biotechnol Biochem, 1998)
